Experimental data as given in ChEMBL document CHEMBL4823305, “Design, synthesis and antibacterial evaluation of novel 3-O-substituted 15-membered azalides possessing 1,2,3-triazole side chains” (2021).
Converted amounts (≈) assume the structure as drawn.

Columns and labels:
Assay type in all cases: functional
Staphylococcus aureus [1] = assay: Antibacterial activity against penicillin-resistant Staphylococcus aureus by broth microdilution method
Staphylococcus aureus [2] = assay: Antibacterial activity against erythromycin-susceptible Staphylococcus aureus ATCC25923 by broth microdilution method
Staphylococcus aureus [3] = assay: Antibacterial activity against methicillin-resistant Staphylococcus aureus ATCC43300 by broth microdilution method
Klebsiella pneumoniae = assay: Antibacterial activity against Klebsiella pneumoniae ATCC10031 by broth microdilution method
Enterococcus faecalis = assay: Antibacterial activity against vancomycin-susceptible Enterococcus faecalis ATCC29212 by broth microdilution method
Bacillus subtilis = assay: Antibacterial activity against penicillin-susceptible Bacillus subtilis ATCC9372 by broth microdilution method
Enterococcus faecium = assay: Antibacterial activity against clinical isolate erythromycin-resistant Enterococcus faecium by broth microdilution method

SMILES | MIC (Staphylococcus aureus [1]) [µg/mL] | MIC (Staphylococcus aureus [2]) [µg/mL] | MIC (Staphylococcus aureus [3]) [µg/mL] | MIC (Klebsiella pneumoniae) [µg/mL] | MIC (Enterococcus faecalis) [µg/mL] | MIC (Bacillus subtilis) [µg/mL] | MIC (Enterococcus faecium) [µg/mL]
CC[C@H]1OC(=O)[C@H](C)[C@@H](OC(=O)NNC(=O)Cn2cc(-c3ccccc3OC)nn2)[C@H](C)[C@@H](O[C@@H]2O[C@H](C)C[C@H](N(C)C)[C@H]2O)[C@](C)(O)C[C@@H](C)CN(C)[C@H](C)[C@H]2OC(=O)O[C@@]21C | 256 (≈ 288 µM) | 64 (≈ 71.9 µM) | 256 (≈ 288 µM) | 64 (≈ 71.9 µM) | 64 (≈ 71.9 µM) | 128 (≈ 144 µM) | 128 (≈ 144 µM)
CCc1ccc(-c2cn(CC(=O)NNC(=O)O[C@H]3[C@H](C)[C@@H](O[C@@H]4O[C@H](C)C[C@H](N(C)C)[C@H]4O)[C@](C)(O)C[C@@H](C)CN(C)[C@H](C)[C@H]4OC(=O)O[C@]4(C)[C@@H](CC)OC(=O)[C@@H]3C)nn2)cc1 | 64 (≈ 72.1 µM) | 16 (≈ 18 µM) | 64 (≈ 72.1 µM) | 16 (≈ 18 µM) | 32 (≈ 36 µM) | 32 (≈ 36 µM) | 32 (≈ 36 µM)
CC[C@H]1OC(=O)[C@H](C)[C@@H](O[C@H]2C[C@@](C)(OC)[C@@H](O)[C@H](C)O2)[C@H](C)[C@@H](O[C@@H]2O[C@H](C)C[C@H](N(C)C)[C@H]2O)[C@](C)(O)C[C@@H](C)CN(C)[C@H](C)[C@@H](O)[C@]1(C)O [AZITHROMYCIN] | > 256 | < 0.25 | > 256 | 2 (≈ 2.67 µM) | 4 (≈ 5.34 µM) | < 0.25 | 256 (≈ 342 µM)
CCCc1ccc(-c2cn(CC(=O)NNC(=O)O[C@H]3[C@H](C)[C@@H](O[C@@H]4O[C@H](C)C[C@H](N(C)C)[C@H]4O)[C@](C)(O)C[C@@H](C)CN(C)[C@H](C)[C@H]4OC(=O)O[C@]4(C)[C@@H](CC)OC(=O)[C@@H]3C)nn2)cc1 | 64 (≈ 70.9 µM) | 16 (≈ 17.7 µM) | 64 (≈ 70.9 µM) | 16 (≈ 17.7 µM) | 8 (≈ 8.87 µM) | 16 (≈ 17.7 µM) | 32 (≈ 35.5 µM)
CC[C@H]1OC(=O)[C@H](C)[C@@H](OC(=O)NNC(=O)Cn2cc(-c3cccc(Cl)c3)nn2)[C@H](C)[C@@H](O[C@@H]2O[C@H](C)C[C@H](N(C)C)[C@H]2O)[C@](C)(O)C[C@@H](C)CN(C)[C@H](C)[C@H]2OC(=O)O[C@@]21C | 256 (≈ 286 µM) | 64 (≈ 71.6 µM) | 128 (≈ 143 µM) | 16 (≈ 17.9 µM) | 16 (≈ 17.9 µM) | 64 (≈ 71.6 µM) | 64 (≈ 71.6 µM)
CC[C@H]1OC(=O)[C@H](C)[C@@H](OC(=O)NNC(=O)Cn2cc(-c3cccc(F)c3)nn2)[C@H](C)[C@@H](O[C@@H]2O[C@H](C)C[C@H](N(C)C)[C@H]2O)[C@](C)(O)C[C@@H](C)CN(C)[C@H](C)[C@H]2OC(=O)O[C@@]21C | 256 (≈ 292 µM) | 32 (≈ 36.4 µM) | 256 (≈ 292 µM) | 64 (≈ 72.9 µM) | 32 (≈ 36.4 µM) | 64 (≈ 72.9 µM) | 128 (≈ 146 µM)
CC[C@H]1OC(=O)[C@H](C)[C@@H](OC(=O)NNC(=O)Cn2cc(-c3cccc([N+](=O)[O-])c3)nn2)[C@H](C)[C@@H](O[C@@H]2O[C@H](C)C[C@H](N(C)C)[C@H]2O)[C@](C)(O)C[C@@H](C)CN(C)[C@H](C)[C@H]2OC(=O)O[C@@]21C | 256 (≈ 283 µM) | 64 (≈ 70.7 µM) | 256 (≈ 283 µM) | 32 (≈ 35.4 µM) | 32 (≈ 35.4 µM) | 128 (≈ 141 µM) | 128 (≈ 141 µM)
CC[C@H]1OC(=O)[C@H](C)[C@@H](O[C@H]2C[C@@](C)(OC)[C@@H](O)[C@H](C)O2)[C@H](C)[C@@H](O[C@@H]2O[C@H](C)C[C@H](N(C)C)[C@H]2O)[C@](C)(OC)C[C@@H](C)C(=O)[C@H](C)[C@@H](O)[C@]1(C)O [CLARITHROMYCIN] | > 256 | < 0.25 | > 256 | 4 (≈ 5.35 µM) | 1 (≈ 1.34 µM) | < 0.25 | 256 (≈ 342 µM)
CC[C@H]1OC(=O)[C@H](C)[C@@H](OC(=O)NNC(=O)Cn2cc(-c3ccc(F)cc3)nn2)[C@H](C)[C@@H](O[C@@H]2O[C@H](C)C[C@H](N(C)C)[C@H]2O)[C@](C)(O)C[C@@H](C)CN(C)[C@H](C)[C@H]2OC(=O)O[C@@]21C | 128 (≈ 146 µM) | 64 (≈ 72.9 µM) | 256 (≈ 292 µM) | 64 (≈ 72.9 µM) | 32 (≈ 36.4 µM) | 64 (≈ 72.9 µM) | 128 (≈ 146 µM)
CC[C@H]1OC(=O)[C@H](C)[C@@H](OC(=O)NNC(=O)Cn2cc(-c3ccccc3Cl)nn2)[C@H](C)[C@@H](O[C@@H]2O[C@H](C)C[C@H](N(C)C)[C@H]2O)[C@](C)(O)C[C@@H](C)CN(C)[C@H](C)[C@H]2OC(=O)O[C@@]21C | 256 (≈ 286 µM) | 32 (≈ 35.8 µM) | 128 (≈ 143 µM) | 32 (≈ 35.8 µM) | 64 (≈ 71.6 µM) | 64 (≈ 71.6 µM) | 64 (≈ 71.6 µM)
CC[C@H]1OC(=O)[C@H](C)[C@@H](OC(=O)NNC(=O)Cn2cc(-c3ccccc3)nn2)[C@H](C)[C@@H](O[C@@H]2O[C@H](C)C[C@H](N(C)C)[C@H]2O)[C@](C)(O)C[C@@H](C)CN(C)[C@H](C)[C@H]2OC(=O)O[C@@]21C | 256 (≈ 298 µM) | 32 (≈ 37.2 µM) | 256 (≈ 298 µM) | 32 (≈ 37.2 µM) | 16 (≈ 18.6 µM) | 128 (≈ 149 µM) | 64 (≈ 74.4 µM)
CC[C@H]1OC(=O)[C@H](C)[C@@H](OC(=O)NNC(=O)Cn2cc(-c3ccc(OC)cc3)nn2)[C@H](C)[C@@H](O[C@@H]2O[C@H](C)C[C@H](N(C)C)[C@H]2O)[C@](C)(O)C[C@@H](C)CN(C)[C@H](C)[C@H]2OC(=O)O[C@@]21C | 256 (≈ 288 µM) | 64 (≈ 71.9 µM) | 256 (≈ 288 µM) | 32 (≈ 36 µM) | 64 (≈ 71.9 µM) | 128 (≈ 144 µM) | 128 (≈ 144 µM)
CC[C@H]1OC(=O)[C@H](C)[C@@H](OC(=O)NNC(=O)Cn2cc(-c3cccc(C)c3)nn2)[C@H](C)[C@@H](O[C@@H]2O[C@H](C)C[C@H](N(C)C)[C@H]2O)[C@](C)(O)C[C@@H](C)CN(C)[C@H](C)[C@H]2OC(=O)O[C@@]21C | 256 (≈ 293 µM) | 64 (≈ 73.2 µM) | 128 (≈ 146 µM) | 16 (≈ 18.3 µM) | 32 (≈ 36.6 µM) | 64 (≈ 73.2 µM) | 128 (≈ 146 µM)
CC[C@H]1OC(=O)[C@H](C)[C@@H](OC(=O)NNC(=O)Cn2cc(-c3cccc(Br)c3)nn2)[C@H](C)[C@@H](O[C@@H]2O[C@H](C)C[C@H](N(C)C)[C@H]2O)[C@](C)(O)C[C@@H](C)CN(C)[C@H](C)[C@H]2OC(=O)O[C@@]21C | 256 (≈ 273 µM) | 64 (≈ 68.2 µM) | 128 (≈ 136 µM) | 32 (≈ 34.1 µM) | 32 (≈ 34.1 µM) | 64 (≈ 68.2 µM) | 128 (≈ 136 µM)
CC[C@H]1OC(=O)[C@H](C)[C@@H](OC(=O)NNC(=O)Cn2cc(-c3ccc(C)cc3)nn2)[C@H](C)[C@@H](O[C@@H]2O[C@H](C)C[C@H](N(C)C)[C@H]2O)[C@](C)(O)C[C@@H](C)CN(C)[C@H](C)[C@H]2OC(=O)O[C@@]21C | 256 (≈ 293 µM) | 32 (≈ 36.6 µM) | 256 (≈ 293 µM) | 16 (≈ 18.3 µM) | 32 (≈ 36.6 µM) | 64 (≈ 73.2 µM) | 64 (≈ 73.2 µM)
CCOc1ccc(-c2cn(CC(=O)NNC(=O)O[C@H]3[C@H](C)[C@@H](O[C@@H]4O[C@H](C)C[C@H](N(C)C)[C@H]4O)[C@](C)(O)C[C@@H](C)CN(C)[C@H](C)[C@H]4OC(=O)O[C@]4(C)[C@@H](CC)OC(=O)[C@@H]3C)nn2)cc1 | 128 (≈ 142 µM) | 32 (≈ 35.4 µM) | 128 (≈ 142 µM) | 32 (≈ 35.4 µM) | 16 (≈ 17.7 µM) | 64 (≈ 70.8 µM) | 128 (≈ 142 µM)
CC[C@H]1OC(=O)[C@H](C)[C@@H](OC(=O)NNC(=O)Cn2cc(-c3ccc(Br)cc3)nn2)[C@H](C)[C@@H](O[C@@H]2O[C@H](C)C[C@H](N(C)C)[C@H]2O)[C@](C)(O)C[C@@H](C)CN(C)[C@H](C)[C@H]2OC(=O)O[C@@]21C | 128 (≈ 136 µM) | 32 (≈ 34.1 µM) | 64 (≈ 68.2 µM) | 64 (≈ 68.2 µM) | 32 (≈ 34.1 µM) | 32 (≈ 34.1 µM) | 64 (≈ 68.2 µM)
CCCOc1ccc(-c2cn(CC(=O)NNC(=O)O[C@H]3[C@H](C)[C@@H](O[C@@H]4O[C@H](C)C[C@H](N(C)C)[C@H]4O)[C@](C)(O)C[C@@H](C)CN(C)[C@H](C)[C@H]4OC(=O)O[C@]4(C)[C@@H](CC)OC(=O)[C@@H]3C)nn2)cc1 | 64 (≈ 69.7 µM) | 16 (≈ 17.4 µM) | 64 (≈ 69.7 µM) | 32 (≈ 34.9 µM) | 16 (≈ 17.4 µM) | 32 (≈ 34.9 µM) | 64 (≈ 69.7 µM)
